According to patent US20260274853A1, “BIFUNCTIONAL COMPOUNDS CONTAINING PYRIMIDINE DERIVATIVES FOR DEGRADING CYCLIN-DEPENDENT KINASE 2 VIA UBIQUITIN PROTEASOME PATHWAY” (NIKANG THERAPEUTICS, INC., priority 2022, published 2026):

Assays:
CDK2 [1] = target: T1, CDK2 (Homo sapiens, UniProt P24941); test: Inhibition of CDK2: phospho-Rb (S807/811) HTRF measurement in OVCAR3 cells; assay type: cell-based; settings: 24 h compound treatment, read-out: pRb (nM), IC50 in pRB(S807/811) assay
T1 construct: High-Throughput Measurement of Cellular Endogenous CDK2; endogenous in cells; host or cells: OVCAR3
Experimental: Phosphorylation of RB protein at S807/811 were measured using HTRF phospho-RB cellular kits (Cat #64RBS807PEG) from Cisbio.
On Day 1, OVCAR3 (dependent on CDK2) cells were seeded into 96-well tissue-culture treated plates at 20,000 cells/well in 200 μL and incubated overnight at 37° C. in CO2 atmosphere. On Day 2, the cells were treated with test compounds at concentrations from 0.3 to 10,000 nM using HP D300 digital dispenser. Twenty-four hours after compound treatment, cell culture media was removed by flicking the plate and tapping the plate against clean paper towel. Immediately 30 μL 1× lysis buffer was supplemented from the kit and the plate was incubated at room temperature on shaker for 30 min. After homogenization by pipetting up and down, 8 μL cell lysate from 96-well cell culture plate was transferred to 384-well small volume white detection plate. 2 μL premixed detection solution was added and the plate was covered with sealer. To prepare the detection solution, d2 conjugated-phospho-RB antibody and Eu-cryptate conjugated phosphor-RB antibody were diluted into detection buffer following manufacturer's instruction. Detection plates were incubated for 4 h at room temperature and read on ClarioStar (BMG Labtech) in TR-FRET mode (665 nM and 620 nM). The TR-FRET ratio (665 nM/620 nM) was plotted against the compound concentration and normalized to DMSO controls. Half maximal inhibition concentration (IC50) values are calculated with a four-parameter logistic fit using GraphPad Prism (version 8; La Jolla, CA).
In the table below, A indicates a IC50 of less than 0.1 μM; B indicates a IC50 of greater than or equal to 0.1 μM but less than 0.5 μM; C indicates a IC50 of greater than or equal to 0.5 μM but less than 1 μM; and D indicates a […] of greater than or equal to 1 μM but less than 10 μM.

CDK2 [2] = target: T1, CDK2; test: CDK2 HTRF assay: cellular endogenous CDK2 level in OVCAR3 cells; assay type: cell-based; settings: 24 hours compound treatment; for DC50: read-out: DC50 (half maximal degradation concentration of CDK2)
Experimental: Effects of compounds on cellular CDK2 level can be monitored by a high-throughput HTRF assay or traditional Western Blot assay.
To determine half maximal degradation concentration (DC50) values of compounds, cellular CDK2 level was measured in 96-well format using HTRF total CDK2 cellular kit (Cat #64CDK2TPEG) from Cisbio.
On Day 1, OVCAR3 cells were seeded into 96-well tissue-culture treated plates at 20,000 cells/well in 200 μL and incubated overnight at 37° C. in CO2 atmosphere. On Day 2 cells were treated with compounds at concentration ranging from 0.3 to 10,000 nM using HP D300 digital dispenser. 24 hours after compound treatment, cell culture media was removed by flicking the plate and tapping the plate against clean paper towel. Immediately 30 μL 1× lysis buffer was supplemented from the kit and the plate was incubated at room temperature on shaker for 30 min. After homogenization by pipetting up and down, 8 μL cell lysate from 96-well cell culture plate was transferred to 384-well small volume white detection plate. 2 μL premixed detection solution was added and the plate was covered with sealer. To prepare the detection solution, d2 conjugated-CDK2 antibody and Eu-cryptate conjugated CDK2 antibody were diluted into detection buffer following manufacturer's instruction. Detection plates were incubated overnight at room temperature and read on ClarioStar (BMG Labtech) in TR-FRET mode (665 nM and 620 nM). The TR-FRET ratio (665 nM/620 nM) was plotted against the compound concentration and normalized to DMSO controls. Half maximal degradation concentration (DC50) values were calculated with a four-parameter logistic fit using GraphPad Prism (version 8; La Jolla, CA).
In the table below, A indicates a DC50 of less than 0.1 μM; B indicates a DC50 of greater than or equal to 0.1 μM but less than 0.5 μM; C indicates a DC50 of greater than or equal to 0.5 μM but less than 1 μM; and D indicates a DC50 of greater than or equal to 1 μM but less than 10 μM.

O=C1CCC(N2C(=O)c3cc(F)c(N4CCN(Cc5cccc(S(=O)(=O)N6CCC(Nc7ncc(C(F)(F)F)c(-c8cnn(C9CCOCC9)c8)n7)CC6)c5)CC4)cc3C2=O)C(=O)N1 (centres unmarked) [Example 10, 2-(2,6-dioxopiperidin-3-yl)-5-fluoro-6-(4-(3-((4-((4-(1-(tetrahydro-2H-pyran-4-yl)-1H-pyrazol-4-yl)-5-(trifluoromethyl)-pyrimidin-2-yl)amino)-piperidin-1-yl)-sulfonyl)benzyl)-piperazin-1-yl)iso-indoline-1,3-dione]
IC50 (CDK2 [1]): < 100 nM | DC50 (CDK2 [2]): < 100 nM

O=C1CCC(Nc2ccc(C3CCN(Cc4cccc(S(=O)(=O)N5CCC(Nc6ncc(C(F)(F)F)c(-c7cnn(CC(F)(F)F)c7)n6)CC5)c4)CC3)cc2)C(=O)N1 (centres unmarked) [Example 11, 3-((4-(1-(3-((4-((4-(1-(2,2,2-trifluoro-ethyl)-1H-pyrazol-4-yl)-5-(trifluoro-methyl)pyrimidin-2-yl)amino)-piperidin-1-yl)sulfonyl)benzyl)piperidin-4-yl)-phenyl)amino)-piperidine-2,6-dione]
IC50 (CDK2 [1]): < 100 nM | DC50 (CDK2 [2]): < 100 nM

O=C1CCC(N2Cc3cc(N4CCC5(CCN(Cc6cccc(S(=O)(=O)N7CCC(Nc8ncc(C(F)(F)F)c(-c9cnn(CC(F)(F)F)c9)n8)CC7)c6)CC5)CC4)ccc3C2=O)C(=O)N1 (centres unmarked) [Example 12, 3-(1-oxo-5-(9-(3-((4-((4-(1-(2,2,2-trifluoroethyl)-1H-pyrazol-4-yl)-5-(trifluoromethyl)pyrimidin-2-yl)amino)-piperidin-1-yl)sulfonyl)-benzyl)-3,9-diazaspiro[5.5]undecan-3-yl)isoindolin-2-yl)piperidine-2,6-dione]
IC50 (CDK2 [1]): < 100 nM | DC50 (CDK2 [2]): < 100 nM

O=C1CCN(c2ccc(N3CCN(Cc4cccc(S(=O)(=O)N5CCC(Nc6ncc(C(F)(F)F)c(-c7cnn(CC(F)(F)F)c7)n6)CC5)c4)CC3)c(F)c2)C(=O)N1 [Example 13, 1-(3-fluoro-4-(4-(3-((4-((4-(1-(2,2,2-trifluoroethyl)-1H-pyrazol-4-yl)-5-(trifluoromethyl)pyrimidin-2-yl)amino)-piperidin-1-yl)sulfonyl)benzyl)-piperazin-1-yl)phenyl)dihydro-pyrimidine-2,4(1H,3H)-dione]
IC50 (CDK2 [1]): < 100 nM | DC50 (CDK2 [2]): < 100 nM

O=C1CCC(c2ccc(N3CCN(Cc4cccc(S(=O)(=O)N5CCC(Nc6ncc(C(F)(F)F)c(-c7cnn(CC(F)(F)F)c7)n6)CC5)c4)CC3)c(F)c2)C(=O)N1 (centres unmarked) [Example 14, 3-(3-fluoro-4-(4-(3-((4-((4-(1-(2,2,2-trifluoroethyl)-1H-pyrazol-4-yl)-5-(trifluoromethyl)pyrimidin-2-yl)-amino)piperidin-1-yl)sulfonyl)benzyl)-piperazin-1-yl)phenyl)piperidine-2,6-dione]
IC50 (CDK2 [1]): < 100 nM | DC50 (CDK2 [2]): < 100 nM

O=C1CCC(N2Cc3cc(N4CCN(Cc5cccc(S(=O)(=O)N6CCC(Nc7ncc(C(F)(F)F)c(-c8cnn(CC(F)(F)F)c8)n7)CC6)c5)CC4)c(F)cc3C2=O)C(=O)N1 (centres unmarked) [Example 15, 3-(6-fluoro-1-oxo-5-(4-(3-((4-((4-(1-(2,2,2-trifluoroethyl)-1H-pyrazol-4-yl)-5-(trifluoromethyl)pyrimidin-2-yl)-amino)piperidin-1-yl)sulfonyl)benzyl)-piperazin-1-yl)isoindolin-2-yl)-piperidine-2,6-dione]
IC50 (CDK2 [1]): < 100 nM | DC50 (CDK2 [2]): < 100 nM

O=C1CCN(c2ccc(N3CCN(Cc4cccc(S(=O)(=O)N5CCC(Nc6ncc(C(F)(F)F)c(-c7cnn(CC(F)(F)F)c7)n6)CC5)c4)CC3)c(C(F)(F)F)c2)C(=O)N1 [Example 16, 1-(4-(4-(3-((4-((4-(1-(2,2,2-trifluoro-ethyl)-1H-pyrazol-4-yl)-5-(trifluoro-methyl)pyrimidin-2-yl)amino)-piperidin-1-yl)sulfonyl)benzyl)-piperazin-1-yl)-3-(trifluoromethyl)-phenyl)dihydro-pyrimidine-2,4(1H,3H)-dione]
IC50 (CDK2 [1]): 1000 to 10000 nM | DC50 (CDK2 [2]): 1000 to 10000 nM

O=C1CCC(N2C(=O)c3cc(F)c(N4CCN(Cc5cccc(S(=O)(=O)N6CCC(Nc7nccc(-c8cnn(CC(F)(F)F)c8)n7)CC6)c5)CC4)cc3C2=O)C(=O)N1 (centres unmarked) [Example 17, 2-(2,6-dioxopiperidin-3-yl)-5-fluoro-6-(4-(3-((4-((4-(1-(2,2,2-trifluoroethyl)-1H-pyrazol-4-yl)pyrimidin-2-yl)amino)-piperidin-1-yl)sulfonyl)benzyl)-piperazin-1-yl)isoindoline-1,3-dione]
IC50 (CDK2 [1]): 1000 to 10000 nM | DC50 (half maximal degradation concentration of CDK2) (CDK2 [2]): no curve

O=C1CCC(c2ccc(N3CC4CCC(C3)N4Cc3cccc(S(=O)(=O)N4CCC(Nc5ncc(C(F)(F)F)c(-c6cnn(CC(F)(F)F)c6)n5)CC4)c3)cc2)C(=O)N1 (centres unmarked) [Example 18, 3-(4-(8-(3-((4-((4-(1-(2,2,2-trifluoro-ethyl)-1H-pyrazol-4-yl)-5-(trifluoro-methyl)pyrimidin-2-yl)amino)-piperidin-1-yl)sulfonyl)benzyl)-3,8-diazabicyclo-[3.2.1]octan-3-yl)phenyl)-piperidine-2,6-dione]
IC50 (CDK2 [1]): < 100 nM | DC50 (CDK2 [2]): < 100 nM

Cn1c(S(=O)(=O)N2CCC(Nc3ncc(C(F)(F)F)c(-c4cnn(CC(F)(F)F)c4)n3)CC2)cnc1CN1CCN(c2ccc(C3CCC(=O)NC3=O)cc2F)CC1 (centres unmarked) [Example 20, 3-(3-fluoro-4-(4-((1-methyl-5-((4-((4-(1-(2,2,2-trifluoroethyl)-1H-pyrazol-4-yl)-5-(trifluoromethyl)pyrimidin-2-yl)amino)-piperidin-1-yl)sulfonyl)-1H-imidazol-2-yl)methyl)piperazin-1-yl)phenyl)-piperidine-2,6-dione]
IC50 (CDK2 [1]): < 100 nM | DC50 (CDK2 [2]): < 100 nM

O=C1CCC(N2C(=O)c3cc(F)c(N4CCN(Cc5cccc(S(=O)(=O)N6CCC(Nc7ncc(C(F)(F)F)c(-c8cnn(CC(F)F)c8)n7)CC6)c5)CC4)cc3C2=O)C(=O)N1 (centres unmarked) [Example 22, 5-(4-(3-((4-((4-(1-(2,2-difluoroethyl)-1H-pyrazol-4-yl)-5-(trifluoromethyl)-pyrimidin-2-yl)amino)-piperidin-1-yl)sulfonyl)benzyl)piperazin-1-yl)-2-(2,6-dioxopiperidin-3-yl)-6-fluoroiso-indoline-1,3-dione]
IC50 (CDK2 [1]): 100 to 500 nM | DC50 (CDK2 [2]): < 100 nM

O=C1CCC(c2ccc(N3CCN(Cc4cccc(S(=O)(=O)N5CCC(Nc6ncc(C(F)(F)F)c(-c7cnn(CC(F)(F)F)c7)n6)CC5)c4)CC3)c(C(F)(F)F)c2)C(=O)N1 (centres unmarked) [Example 23, 3-(4-(4-(3-((4-((4-(1-(2,2,2-trifluoro-ethyl)-1H-pyrazol-4-yl)-5-(trifluoro-methyl)pyrimidin-2-yl)amino)-piperidin-1-yl)sulfonyl)benzyl)-piperazin-1-yl)-3-(trifluoromethyl)-phenyl)piperidine-2,6-dione]
IC50 (CDK2 [1]): 100 to 500 nM | DC50 (CDK2 [2]): 100 to 500 nM

CC(C)(O)Cn1cc(-c2nc(NC3CCN(S(=O)(=O)c4cccc(CN5CCN(c6ccc(N7CCC(=O)NC7=O)cc6)CC5)c4)CC3)ncc2C(F)(F)F)cn1 [Example 24, 1-(4-(4-(3-((4-((4-(1-(2-hydroxy-2-methylpropyl)-1H-pyrazol-4-yl)-5-(trifluoromethyl)pyrimidin-2-yl)amino)-piperidin-1-yl)sulfonyl)benzyl)-piperazin-1-yl)phenyl)dihydro-pyrimidine-2,4(1H,3H)-dione]
IC50 (CDK2 [1]): < 100 nM | DC50 (CDK2 [2]): < 100 nM
